Test results published in ChEMBL document CHEMBL1221333, “Design, synthesis, and biological evaluation of conformationally constrained glycerol 3-phosphate acyltransferase inhibitors” (Bioorg Med Chem, 2010).

Columns and labels:
[1] = Inhibition of GPAT at 40 ug/ml
[2] = Inhibition of GPAT

Structure (SMILES) | inhibition [1] [%] | IC50 [2] [µM]
CCCCCCCCS(=O)(=O)N[C@@H]1CC[C@H](CC(=O)O)[C@H]1O (racemic) | 16 | 
CCCCCCCCS(=O)(=O)N[C@@H]1CCC[C@H](C(=O)O)[C@H]1O (racemic) | 17 | 
CCCCCCCCS(=O)(=O)N[C@H]1CC[C@H](CC(=O)O)[C@@H]1O (racemic) | 8 | 
CCCCCCCCS(=O)(=O)N[C@@H]1CCC[C@H](CC(=O)O)[C@H]1O (racemic) | 17 | 
CCCCCCCCS(=O)(=O)N[C@H]1CCC[C@H](C(=O)O)[C@@H]1O (racemic) | 15 | 
CCCCCCCCS(=O)(=O)N[C@H]1CCC[C@H](CC(=O)O)[C@H]1O (racemic) | 2 | 
CCCCCCCCCS(=O)(=O)Nc1ccccc1C(=O)O | 97 | 24.7
CCCCCCCCS(=O)(=O)N[C@H]1CC[C@H](CC(=O)O)[C@H]1O (racemic) | 8 | 295
CCCCCCCCS(=O)(=O)N[C@H]1CCC[C@H](CC(=O)O)[C@@H]1O (racemic) | 23 | 

Next, values leading:

inhibition [1] [%] | IC50 [2] [µM] | Structure (SMILES)
19 |  | CCCCCCCCS(=O)(=O)N[C@H]1CC[C@H](C(=O)O)[C@H]1O (racemic)
12 |  | CCCCCCCCS(=O)(=O)N[C@@H]1[C@@H](O)CC[C@H]1C(=O)O (racemic)
15 |  | CCCCCCCCS(=O)(=O)N[C@H]1[C@H](O)CC[C@H]1C(=O)O (racemic)
25 | 255 | CCCCCCCCS(=O)(=O)N[C@@H]1CC[C@H](C(=O)O)[C@H]1O (racemic)
36 | 164 | CCCCCCCCS(=O)(=O)N[C@H]1CCC[C@H](C(=O)O)[C@H]1O (racemic)
3 | 324 | CCCCCCCCS(=O)(=O)N[C@H]1CC[C@H](C(=O)O)[C@@H]1O (racemic)
